Experimental data reported in patent publication US12714669B2, “Liposomal formulations comprising AT1 receptor blockers and uses thereof” (YISSUM RESEARCH DEVELOPMENT COMPANY OF THE HEBREW …, priority 2020, dated 2026).
“Also recorded” adds a separate entry of the source. Like-named read-outs stand apart in the source and are kept apart here.

Legend:
[1] = system: mouse mean blood pressure (MBP); test: Liposomal valsartan activity on mice blood pressure (CODA monitor, tail); type: in vivo
Description: The development of liposomal ARB's aimed at delivering the drugs to the tumor and exert their activity there while avoiding the systemic effect of the drug on blood pressure. […] MBP was measured using CODA monitor device allowing measurement of blood pressure in mouse tail.
Four mice were tested before drug administration and 2, 24 and 48 h after drug administration. For each mouse, at least 3 measurements (and up to 10) were recorded for each time point.

AT1 receptor [2] = target: T1, AT1 receptor (Homo sapiens, UniProt P30556); test: IC50 / affinity to AT1 receptor (stated, not measured in the patent); type: binding; conditions: corresponding to the nM values; read-out: IC50 to AT1 receptor, as mass concentration (converted)
T1 sequence (P30556 1-359): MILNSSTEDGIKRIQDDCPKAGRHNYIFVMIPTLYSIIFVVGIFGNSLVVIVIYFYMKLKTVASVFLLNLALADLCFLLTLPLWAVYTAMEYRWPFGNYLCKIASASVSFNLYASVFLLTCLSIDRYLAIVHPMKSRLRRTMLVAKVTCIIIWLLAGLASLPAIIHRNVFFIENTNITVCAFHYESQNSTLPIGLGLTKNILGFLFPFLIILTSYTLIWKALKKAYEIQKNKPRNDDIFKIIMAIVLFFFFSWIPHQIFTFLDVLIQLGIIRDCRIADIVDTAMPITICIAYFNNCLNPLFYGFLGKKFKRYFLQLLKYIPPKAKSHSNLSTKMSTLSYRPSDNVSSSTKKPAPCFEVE

AT1 receptor [3] = target: T1, AT1 receptor; conditions: cited from earlier work
[4] = aqueous media; compared with valsartan; cited from earlier work

With `CCCCC(=O)N(Cc1ccc(-c2ccccc2-c2nnn[nH]2)cc1)[C@H](C(=O)O)C(C)C` [Valsartan, (2S)-3-methyl-2-[pentanoyl-[[4-[2-(2H-tetrazol-5-yl)phenyl]phenyl]methyl]amino]butanoic acid] the “lowering of MBP” value ([1]; 25 mg/kg, 2 h after administration) was ~ 35 units, the “MBP at t=24 h” value ([1]; 25 mg/kg, 24 h after administration) was “returned to baseline” and the “effect on MBP 2 h after injection” value ([1]; 2 h after injection) was “reduction in MBP”. It also gave an MBP after administration ([1]; reduction from 105 mmHg) of 70 mmHg.

In the case of `CCOc1nc2cccc(C(=O)O)c2n1Cc1ccc(-c2ccccc2-c2nnn[nH]2)cc1` [Candesartan, 2-ethoxy-3-[[4-[2-(2H-tetrazol-5-yl)phenyl]phenyl]methyl]benzimidazole-4-carboxylic acid], the IC50 (AT1 receptor [2]) is listed as 2.95 nM, the IC50 (AT1 receptor [3]) is listed as 3 nM and the “affinity for AT1 receptor” value (AT1 receptor [3]; versus losartan, telmisartan, valsartan (Bhuiyan 2013)) is listed as “highest affinity”. For the same compound, the solubility [4] was “very limited; also recorded: not soluble”.
